Holding throughout (assay type): in vivo
In one data set the test system is souris. Briefly: Acute toxicity, oral administration in mice. An excerpt: On a évalué les doses létales DLo des différents composés testés après administration par voie orale chez la souris.
On apelle DLo la dose maximale ne provoquant aucune mortalité en 8 jours.

In data set [1] the test system is rats mâles de souche WISTAR. Briefly: Hypotensive activity in anaesthetised rats (carotid arterial pressure, intravenous administration). The conditions noted are these: relative to initial control pressure. On the procedure:
A) Détermination de l'activité hypotensive L'activité hypotensive a été étudiée sur des rats mâles de souche WISTAR pensant 300 g environ et anesthésiés au nembutal (50 mg/kg par voie intraveineuse).
Le produit testé a été administré par voie intraveineuse dans la veine jugulaire.
La pression artérielle carotidienne a été mesurée avant et après administration du produit testé.
Le tableau ci-après indique les variations exprimées en pourcentage de la pression artérielle après administration du produit testé par rapport à la pression artérielle témoin initiale: […]

Data set [2] has as its system rats mâles spontanément hypertendus (souche Okamoto). Briefly: Antihypertensive activity in spontaneously hypertensive rats (tail arterial pressure, oral administration). The conditions noted are these: 1 mg/kg oral, relative to initial control pressure; for Variation % de la pression arterielle 1 heure après l'administration: 1 hour; for Variation % de la pression arterielle 4 heures après l'administration: 4 hours. An excerpt: L'action antihypertensive a été étudiée sur des rats mâles spontanément hypertendus (souche Okamoto) âgés de 20 semaines pesant 300 à 320g.
Le produit a été administré par voie orale 48 heures après la pose d'un cathéter intracarotidien.
La pression artérielle a été mesurée à la queue du rat au moyen d'un manchon pneumatique et à l'aide d'un transducteur piezo-électrique de pression. La pression a été mesurée avant et une heure, quatre heures et vingt-quatre heures après l'administration du produit.
Le tableau ci-après indique les variations exprimées en pourcentages de la pression artérielle, après administration du produit, par rapport à la pression témoin initiale.

The test system of data set [3] is ulcéres au niveau de l'estomac, par ligature du pylore. Briefly: Antiulcer activity, Shay technique (gastric ulcers induced by pylorus ligation). The conditions noted are these: pylorus-ligated rats, about 16 hours after treatment. From the text: La technique utilisée est décrite par SHAY et al dans Gastroenterology, 5, 43 (1945).
La technique de SHAY consiste à induire chez ez des rats des ulcéres au niveau de l'estomac, par ligature du pylore.
Les animaux sont anesthésiés à l'éther. Une incision longitudinale est faite 1 cm environ au-dessous du sternum, la partie glandulaire de l'estomac et le duodénum sont mis à jour et une ligature est posée quelques mm au-dessous du pylore. Le plan musculaire est laissé tel quel et la peau est suturée par deux agrafes.
Les animaux reçoivent aussitôt après le dispersif ou la substance à étudier, par voie buccale, sous un volume de 0,5 ml/100 g, et sont maintenus sans nourriture ni boisson, jusqu'au sacrifice par saignée carotidienne qui a lieu environ 16 heures après le traitement.
Avant de prélèver l'estomac, une ligature est possé au-dessus du cardia.
Le liquide gastrique est recueilli afin d'en mesure le pH.
L'estomac est ensuite ouvert selon la grande courbure, rincé dans le sérum physiologique et étalé sur du papier millimétrique pour être examiné sous la loupe binoculaire.
On évalue macroscopiquement la gravité des lésions qui est côtée de 0 à 4 pour chaque estomac.
On détermine pour chaque lot de rat, l'intensité moyenne des ulcérations et on calcule la protection en rapportant l'index moyen du groupe à l'index moyen du groupe témoin.
On détermine également les valeurs de pH du liquide gastrique pour les animaux traités et les animaux témoins.

[4] abbreviates: oral, mice, maximal dose causing no mortality in 8 days.
The mark [5] stands for this setting: dose −0,1 mg/kg [sic], intravenous.

This note sets out measurements from patent EP0076713B1, “Aminomethyl-1H-indole-4-methanol derivatives and their salts, process and intermediates for their preparation, their use as medicines and compositions containing them” (ROUSSEL-UCLAF, priority 1981, dated 1983).

Counter-ions that a name gives are not always drawn.

In turn, `NCC(O)c1cccc2[nH]ccc12` (stereo not drawn) [Exemple 1, Fumaratede 1α-(aminométhyl)-1H-indole-4-méthanol] gave a DLo with souris (setting [4]) of more than 1000 mg/kg.

With `CNCC(O)c1cccc2[nH]ccc12` (centres unmarked) [Exemple 3, a-(méthylamino)méthyl-1 H-indole-4-méthanol], the “Variation % de la pression arterielle 10 minutes après l'administration” value in data set [1] (0,1 mg/kg intravenous) is recorded as −5%. Moreover, in data set [1] (setting [5]), the “Variation % de la pression arterielle 1 minute après l'administration” value is reported as “+19%”, the “Variation % de la pression arterielle 5 minutes après l'administration” value is on record as −4% and the “Variation % de la pression arterielle 30 minutes après l'administration” value is recorded as −9%. Moreover, in the data set on souris (setting [4]), the DLo worked out at 600 mg/kg.

`CC(C)NCC(O)c1cccc2c1CCN2` (stereo not drawn) [Exemple 5, α-[[(1-méthyléthyl)amino]méthyl]2,3-dihydro-1H-indole-4-méthanol]: the results for the “Variation % de la pression arterielle 1 minute après l'administration” value in data set [1] (0,1 mg/kg intravenous) and in data set [1] (1 mg/kg intravenous) were −24% and −20%, respectively. Also, the “Variation % de la pression arterielle 5 minutes après l'administration” value in data set [1] (0,1 mg/kg intravenous) was −28%; in data set [1] (1 mg/kg intravenous), −19%. The “Variation % de la pression arterielle 10 minutes après l'administration” value in data set [1] (0,1 mg/kg intravenous) is recorded as −26%; in data set [1] (1 mg/kg intravenous) it was −17%. In addition, the “Variation % de la pression arterielle 30 minutes après l'administration” value was −22% in data set [1] (0,1 mg/kg intravenous) and −14% in data set [1] (1 mg/kg intravenous). Moreover, the “Variation % de la pression arterielle 1 heure après l'administration” value in data set [2] is on record as −27%. In addition, the “Variation % de la pression arterielle 4 heures après l'administration” value in data set [2] is listed as −24%. For the same molecule, the “Variation % de la pression arterielle 24 heures après l'administration” value in data set [2] (24 hours) is −17%. Further, the “Ulcération % de protection par rapport aux témoins” value was found to be 60% in data set [3] (0,4 mg/kg oral), 66% in data set [3] (0,08 mg/kg oral) and 90% in data set [3] (2 mg/kg oral). The “pH du liquide gastrique animaux traités” value is given as 2,5 in data set [3] (0,4 mg/kg oral, controls pH 2,2); 2,6 in data set [3] (0,08 mg/kg oral, controls pH 2,2); 2,6 in data set [3] (2 mg/kg oral, controls pH 2). In the data set with souris (setting [4]), the DLo turned out to be 200 mg/kg.

In the data set with souris (setting [4]), `CNCC(O)c1cccc2c1CCN2` (centres unmarked) [Exemple 6, a-(méthylamino)métyl-2,3-dihydro-1 H-indole-4-méthanol] came in with a DLo of more than 400 mg/kg.

In the case of `OC(CNCc1ccccc1)c1cccc2[nH]ccc12` (centres unmarked) [Exemple 8, Oxalate acidede 1'a[[(phénylméthyl)amino]méthyl]-1 H-indole-4-méthanol], in data set [1] (1 mg/kg intravenous), the “Variation % de la pression arterielle 1 minute après l'administration” value is on record as −9%, the “Variation % de la pression arterielle 5 minutes après l'administration” value is recorded as −8%, the “Variation % de la pression arterielle 10 minutes après l'administration” value is −6% and the “Variation % de la pression arterielle 30 minutes après l'administration” value is given as −10%. Further, in data set [1] (10 mg/kg intravenous), the “Variation % de la pression arterielle 1 minute après l'administration” value is recorded as −38%, the “Variation % de la pression arterielle 5 minutes après l'administration” value was −21%, the “Variation % de la pression arterielle 10 minutes après l'administration” value is given as −21% and the “Variation % de la pression arterielle 30 minutes après l'administration” value is on record as −15%. Also, in the data set on souris (setting [4]), the DLo is reported as 100 mg/kg.

Turning to `OC(CNCCc1ccccc1)c1cccc2[nH]ccc12` (centres unmarked) [Exemple 9, Oxalate acidede 1'a-[[(2-phényléthyl)amino]méthyl]-1 H-indole-4-méthanol], in data set [1] (1 mg/kg intravenous), the “Variation % de la pression arterielle 1 minute après l'administration” value is −13%, the “Variation % de la pression arterielle 5 minutes après l'administration” value is listed as −11%, the “Variation % de la pression arterielle 10 minutes après l'administration” value is reported as −4% and the “Variation % de la pression arterielle 30 minutes après l'administration” value was −3%. In data set [1] (10 mg/kg intravenous), the “Variation % de la pression arterielle 1 minute après l'administration” value is on record as −48%, the “Variation % de la pression arterielle 5 minutes après l'administration” value was −44%, the “Variation % de la pression arterielle 10 minutes après l'administration” value is −37% and the “Variation % de la pression arterielle 30 minutes après l'administration” value is on record as −33%. In the data set on souris (mouse, in vivo, po, 11520 min), this molecule displayed a DLo of 80 mg/kg.

Regarding `OC(CNCC(O)c1cccc2[nH]ccc12)COc1ccccc1` (centres unmarked) [Exemple 10, a-[[(2-hydroxy-3-phénoxy-propyl)amino]méthyl]-1H-indole-4-méthanol], in data set [1] (1 mg/kg intravenous), the “Variation % de la pression arterielle 1 minute après l'administration” value is −32%, the “Variation % de la pression arterielle 5 minutes après l'administration” value is recorded as −14%, the “Variation % de la pression arterielle 10 minutes après l'administration” value is reported as −15% and the “Variation % de la pression arterielle 30 minutes après l'administration” value was −13%. Besides, the DLo in the data set on souris (mouse, in vivo, po, 11520 min) is given as more than 400 mg/kg.

As to `CCCNCC(O)c1cccc2[nH]ccc12` (centres unmarked) [Exemple 11, Oxalatede 1'a[[(1-propyl)amino]méthyl]-1H-indole-4-méthanol], in data set [1] (0,1 mg/kg intravenous), the “Variation % de la pression arterielle 1 minute après l'administration” value is −11%, the “Variation % de la pression arterielle 5 minutes après l'administration” value was −12%, the “Variation % de la pression arterielle 10 minutes après l'administration” value was −12% and the “Variation % de la pression arterielle 30 minutes après l'administration” value is −13%. In data set [1] (1 mg/kg intravenous), the “Variation % de la pression arterielle 1 minute après l'administration” value is −22%, the “Variation % de la pression arterielle 5 minutes après l'administration” value is listed as −33%, the “Variation % de la pression arterielle 10 minutes après l'administration” value is listed as −33% and the “Variation % de la pression arterielle 30 minutes après l'administration” value is −30%. Also, the “Ulcération % de protection par rapport aux témoins” value in data set [3] (1 mg/kg oral) was determined as 48%. For the same molecule, in data set [3] (1 mg/kg oral, controls pH 3,3), the “pH du liquide gastrique animaux traités” value was 3,2. Besides, the “Ulcération % de protection par rapport aux témoins” value in data set [3] (5 mg/kg oral) was found to be 63%. Further, the “pH du liquide gastrique animaux traités” value in data set [3] (5 mg/kg oral, controls pH 3,0) was 2,9. In addition, the DLo in the data set on souris (setting [4]) is on record as 100 mg/kg.

With “Oxalate neutre de 1'a[[(1-méthyléthyl)amino]méthyl]-1H-indole-4-méthanol [Exemple 2]”, in data set [1] (0,1 mg/kg intravenous), the “Variation % de la pression arterielle 1 minute après l'administration” value is listed as −36%, the “Variation % de la pression arterielle 5 minutes après l'administration” value is −28%, the “Variation % de la pression arterielle 10 minutes après l'administration” value is −30% and the “Variation % de la pression arterielle 30 minutes après l'administration” value is −27%. In data set [1] (1 mg/kg intravenous), the “Variation % de la pression arterielle 1 minute après l'administration” value is −41%, the “Variation % de la pression arterielle 5 minutes après l'administration” value was −38%, the “Variation % de la pression arterielle 10 minutes après l'administration” value is on record as −29% and the “Variation % de la pression arterielle 30 minutes après l'administration” value is recorded as −20%. For the same molecule, in data set [2], the “Variation % de la pression arterielle 1 heure après l'administration” value is on record as −22% and the “Variation % de la pression arterielle 4 heures après l'administration” value was −21%. Further, in the data set on souris (mouse, in vivo, po, 11520 min), the DLo was determined as 200 mg/kg.

Consider “oxalate neutre de 1'a-[[(1-éthylpropyl)amino]méthyl]-1 H-indole-4-méthanol [Exemple 7]”, for which, in data set [1] (10 mg/kg intravenous), the “Variation % de la pression arterielle 1 minute après l'administration” value is on record as −59%, the “Variation % de la pression arterielle 5 minutes après l'administration” value is given as −56%, the “Variation % de la pression arterielle 10 minutes après l'administration” value is −50% and the “Variation % de la pression arterielle 30 minutes après l'administration” value was −35%. Also, in the data set on souris (mouse, in vivo, po, 11520 min), the DLo is recorded as 80 mg/kg.
